Measured values taken from a compilation of properties of binary mixtures (doi:10.1016/j.molliq.2018.08.031).

Test: xn = mol fraction of the nth substance listed
Conditions: 100 kPa

COCCOCCOC + CCCC[n+]1ccn(C)c1.F[P-](F)(F)(F)(F)F
Conditions	viscosity [mPa·s]
283.15 K, x2 = 0.0571	2.381
283.15 K, x2 = 0.1013	3.238
283.15 K, x2 = 0.2923	11.69
283.15 K, x2 = 0.39	19.81
283.15 K, x2 = 0.492	37.5
283.15 K, x2 = 0.6827	114.6
283.15 K, x2 = 0.9711	618
293.15 K, x2 = 0.057	1.99
293.15 K, x2 = 0.1982	4.59
293.15 K, x2 = 0.2963	7.91
293.15 K, x2 = 0.3913	14.79
293.15 K, x2 = 0.5865	39.52
293.15 K, x2 = 0.6814	66.5
293.15 K, x2 = 0.7968	124.3
293.15 K, x2 = 0.892	209.7
303.15 K, x2 = 0.0995	1.623
303.15 K, x2 = 0.1973	2.826
303.15 K, x2 = 0.2994	5.146
303.15 K, x2 = 0.4896	14.66
303.15 K, x2 = 0.5893	24.8
303.15 K, x2 = 0.6884	40.83
303.15 K, x2 = 0.8923	113.3
303.15 K, x2 = 0.9596	158.7
313.15 K, x2 = 0.057	0.953
313.15 K, x2 = 0.0943	0.744
313.15 K, x2 = 0.1995	0.789
313.15 K, x2 = 0.2856	1.631
313.15 K, x2 = 0.4877	7.46
313.15 K, x2 = 0.6781	21.08
313.15 K, x2 = 0.7994	38.25
313.15 K, x2 = 0.8941	61
313.15 K, x2 = 0.9553	83.2
